{"source": "patent US10294202B2", "about": "“Pyrrolidinones as herbicides” (FMC Corporation, priority 2013, dated 2019)", "key": {"cocklebur": {"test_system": "cocklebur", "experiment": "Test C pre-/postemergence herbicide test", "assay_type": "in vivo, Xanthium strumarium", "details": "Preemergence; for Cocklebur plant response rating: 31 g ai/ha", "outline": "(§1)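 Herbicidal effect was judged by eye 13 to 15 days after treatment in the greenhouse, using a 0–100 scale against controls. Chemicals in a non-phytotoxic solvent with surfactant were sprayed onto planted loam/sand soil or onto plants 2 to 18 cm tall in a peat-based growing medium.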"}, "goosegrass": {"test_system": "goosegrass", "experiment": "Test C pre-/postemergence herbicide test", "assay_type": "in vivo, Eleusine indica", "details": "Preemergence; for Goosegrass plant response rating: 31 g ai/ha", "outline": "as §1"}, "Russian thistle": {"test_system": "Russian thistle", "experiment": "Test C pre-/postemergence herbicide test", "assay_type": "in vivo, Salsola kali", "details": "Preemergence", "outline": "as §1"}, "foxtail, green": {"test_system": "foxtail, green", "experiment": "Test C pre-/postemergence herbicide test", "assay_type": "in vivo, Setaria viridis", "details": "Preemergence; for Foxtail, Green plant response rating: 31 g ai/ha", "outline": "as §1"}, "waterhemp": {"test_system": "waterhemp", "experiment": "Test E preemergence herbicide test", "assay_type": "in vivo, Amaranthus rudis", "set-up": "key: 0 = no effect, 100 = complete control", "excerpt": "Seeds of plant species selected from corn (Zea mays), soybean (Glycine max), velvetleaf (Abutilon theophrasti), lambsquarters (Chenopodium album), wild poinsettia (Euphorbia heterophylla), pigweed, palmer (palmer pigweed, Amaranthus palmeri), waterhemp (common waterhemp, Amaranthus rudis), surinam grass (Brachiaria decumbens), crabgrass, large (large crabgrass, Digitaria sanguinalis), crabgrass, Brazil (Brazilian crabgrass, Digitaria horizontalis), panicum, fall (fall panicum, Panicum dichotomiflorum), foxtail, giant (giant foxtail, Setaria faberii), foxtail, green (green foxtail, Setaria viridis), goosegrass (Eleusine indica), johnsongrass (Sorghum halepense), ragweed (common ragweed, Ambrosia elatior), barnyardgrass (Echinochloa crus-galli), sandbur (southern sandbur, Cenchrus echinatus), arrowleaf […] rhombifolia), ryegrass, Italian (Italian ryegrass, Lolium multiflorum), dayflower, VA (Virginia dayflower, Commelina virginica), field bindweed (Convolvulus arvensis), morningglory (Ipomoea coccinea), nightshade (eastern black nightshade, Solanum ptycanthum), kochia (Kochia scoparia), nutsedge, yellow (yellow nutsedge, Cyperus esculentus), cocklebur (common cocklebur, Xanthium strumarium), smartweed (ladysthumb smartweed, Polygonum Persicaria) and beggarticks (hairy beggarticks, Bidens pilosa), were planted into a silt loam soil and treated preemergence with test chemicals formulated in a non-phytotoxic solvent mixture which included a surfactant. Treated plants and controls were maintained in a greenhouse for 21 days, after which time all species were compared to controls and visually evaluated. Plant response ratings, summarized in Table E, are based on a scale of 0 to 100 where 0 is no effect and 100 is complete control. A dash (-) response means no test result."}, "cupgrass, woolly": {"test_system": "cupgrass, woolly", "experiment": "Test C pre-/postemergence herbicide test", "assay_type": "in vivo, Eriochloa villosa", "details": "Preemergence; for Cupgrass, Woolly plant response rating: 31 g ai/ha", "outline": "as §1"}, "bromegrass, downy": {"test_system": "bromegrass, downy", "experiment": "Test C pre-/postemergence herbicide test", "assay_type": "in vivo, Bromus tectorum", "details": "Preemergence; for Bromegrass, Downy plant response rating: 31 g ai/ha", "outline": "as §1"}, "sunflower": {"test_system": "sunflower", "experiment": "Test C pre-/postemergence herbicide test", "assay_type": "in vivo, Helianthus annuus", "details": "Preemergence", "outline": "as §1"}, "surinam grass": {"test_system": "surinam grass", "experiment": "Test C pre-/postemergence herbicide test", "assay_type": "in vivo, Brachiaria decumbens", "details": "Preemergence", "outline": "as §1"}, "bermudagrass": {"test_system": "bermudagrass", "experiment": "Test C pre-/postemergence herbicide test", "assay_type": "in vivo, Cynodon dactylon", "details": "Preemergence; for Bermudagrass plant response rating: 31 g ai/ha", "outline": "as §1"}, "nightshade": {"test_system": "nightshade", "experiment": "Test C pre-/postemergence herbicide test", "assay_type": "in vivo, Solanum ptycanthum", "details": "Preemergence", "outline": "as §1"}, "galium": {"test_system": "galium", "experiment": "Test A postemergence herbicide test", "assay_type": "in vivo, Galium aparine", "outline": "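Blackgrass and galium grown in pots of loam soil–sand blend, treated postemergence at 2–10 cm height, one- to two-leaf stage. Plants kept in greenhouse ~10 days, then visually rated for injury against untreated controls on a 0–100 scale (0 no effect, 100 complete control).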"}, "[1]": {"details": "scale 0 to 100 (0 no effect, 100 complete control)"}, "[2]": {"details": "125 g ai/ha, scale 0 to 100 (0 no effect, 100 complete control)"}, "[3]": {"details": "250 g ai/ha, scale 0 to 100 (0 no effect, 100 complete control)"}, "[4]": {"details": "scale 0 to 100, 0 is no effect and 100 is complete control"}, "[5]": {"details": "31 g ai/ha, scale 0 to 100, 0 is no effect and 100 is complete control"}}}
{"smiles": "O=C1NCC(c2ccc(F)cc2)C1C(=O)Nc1ccccc1F", "note": "(racemic) [Compound 16]", "values": [{"measurement": "Cocklebur plant response rating", "setting": "cocklebur; [1]", "value": 0}, {"measurement": "Plant response rating, Cocklebur", "setting": "cocklebur; 62 g ai/ha, scale 0 to 100", "value": 0}, {"measurement": "Plant response rating, Cocklebur", "setting": "cocklebur; [2]", "value": 0}, {"measurement": "Plant response rating, Cocklebur", "setting": "cocklebur; [3]", "value": 0}, {"measurement": "Goosegrass plant response rating", "setting": "goosegrass; [1]", "value": 0}, {"measurement": "Plant response rating, Goosegrass", "setting": "goosegrass; 62 g ai/ha, scale 0 to 100", "value": 0}, {"measurement": "Plant response rating, Goosegrass", "setting": "goosegrass; [2]", "value": 0}, {"measurement": "Plant response rating, Russian Thistle", "setting": "Russian thistle; 62 g ai/ha, scale 0 to 100", "value": 0}, {"measurement": "Plant response rating, Russian Thistle", "setting": "Russian thistle; [2]", "value": 0}, {"measurement": "Foxtail, Green plant response rating", "setting": "foxtail, green; [1]", "value": 5}, {"measurement": "Plant response rating, Foxtail, Green", "setting": "foxtail, green; 62 g ai/ha, scale 0 to 100", "value": 35}, {"measurement": "Plant response rating, Foxtail, Green", "setting": "foxtail, green; [2]", "value": 80}, {"measurement": "Plant response rating, Foxtail, Green", "setting": "foxtail, green; [3]", "value": 90}, {"measurement": "Plant response rating, Waterhemp", "setting": "waterhemp; 16 g ai/ha", "value": 0}, {"measurement": "Plant response rating, Waterhemp", "setting": "waterhemp; 31 g ai/ha", "value": 0}, {"measurement": "Plant response rating, Waterhemp", "setting": "waterhemp; 62 g ai/ha", "value": 0}, {"measurement": "Plant response rating, Waterhemp", "setting": "waterhemp; 125 g ai/ha", "value": 0}, {"measurement": "Plant response rating, Waterhemp", "setting": "waterhemp; 250 g ai/ha", "value": 0}, {"measurement": "Cupgrass, Woolly plant response rating", "setting": "cupgrass, woolly; [1]", "value": 55}, {"measurement": "Plant response rating, Cupgrass, Woolly", "setting": "cupgrass, woolly; 62 g ai/ha, scale 0 to 100", "value": 95}, {"measurement": "Plant response rating, Cupgrass, Woolly", "setting": "cupgrass, woolly; [2]", "value": 95}, {"measurement": "Plant response rating, Cupgrass, Woolly", "setting": "cupgrass, woolly; [3]", "value": 95}, {"measurement": "Bromegrass, Downy plant response rating", "setting": "bromegrass, downy; [1]", "value": 0}, {"measurement": "Plant response rating, Bromegrass, Downy", "setting": "bromegrass, downy; 62 g ai/ha, scale 0 to 100", "value": 5}, {"measurement": "Plant response rating, Bromegrass, Downy", "setting": "bromegrass, downy; [2]", "value": 30}, {"measurement": "Plant response rating, Bromegrass, Downy", "setting": "bromegrass, downy; [3]", "value": 35}, {"measurement": "Plant response rating Sunflower", "setting": "sunflower; 62 g ai/ha, scale 0 to 100", "value": 0}, {"measurement": "Plant response rating Sunflower", "setting": "sunflower; [2]", "value": 0}, {"measurement": "Plant response rating, Surinam Grass", "setting": "surinam grass; 62 g ai/ha, scale 0 to 100", "value": 95}, {"measurement": "Plant response rating, Surinam Grass", "setting": "surinam grass; [2]", "value": 98}, {"measurement": "Bermudagrass plant response rating", "setting": "bermudagrass; [1]", "value": 0}, {"measurement": "Plant response rating, Bermudagrass", "setting": "bermudagrass; 62 g ai/ha, scale 0 to 100", "value": 0}, {"measurement": "Plant response rating, Bermudagrass", "setting": "bermudagrass; [2]", "value": 90}, {"measurement": "Plant response rating, Bermudagrass", "setting": "bermudagrass; [3]", "value": 95}, {"measurement": "Plant response rating, Nightshade", "setting": "nightshade; 62 g ai/ha, scale 0 to 100", "value": 0}, {"measurement": "Plant response rating, Nightshade", "setting": "nightshade; [2]", "value": 0}]}
{"smiles": "O=C1NCC(c2cccc(Br)c2)C1C(=O)Nc1ccccc1F", "note": "(stereo not shown) [Compound 66]", "values": [{"measurement": "Cocklebur plant response rating", "setting": "cocklebur; [4]", "value": 0}, {"measurement": "Goosegrass plant response rating", "setting": "goosegrass; [4]", "value": 5}, {"measurement": "Plant response rating, Goosegrass", "setting": "goosegrass; 62 g ai/ha, scale 0 to 100", "value": 5}, {"measurement": "Plant response rating, Goosegrass", "setting": "goosegrass; [2]", "value": 10}, {"measurement": "Russian Thistle plant response rating", "setting": "Russian thistle; [5]", "value": 0}, {"measurement": "Plant response rating, Russian Thistle", "setting": "Russian thistle; 62 g ai/ha, scale 0 to 100", "value": 0}, {"measurement": "Plant response rating, Russian Thistle", "setting": "Russian thistle; [2]", "value": 0}, {"measurement": "Foxtail, Green plant response rating", "setting": "foxtail, green; [4]", "value": 50}, {"measurement": "Plant response rating, Foxtail, Green", "setting": "foxtail, green; 62 g ai/ha, scale 0 to 100", "value": 80}, {"measurement": "Plant response rating, Foxtail, Green", "setting": "foxtail, green; [2]", "value": 90}, {"measurement": "Plant response rating, Foxtail, Green", "setting": "foxtail, green; [3]", "value": 98}, {"measurement": "Plant response rating, Waterhemp", "setting": "waterhemp; 16 g ai/ha", "value": 0}, {"measurement": "Plant response rating, Waterhemp", "setting": "waterhemp; 31 g ai/ha", "value": 0}, {"measurement": "Plant response rating, Waterhemp", "setting": "waterhemp; 62 g ai/ha", "value": 0}, {"measurement": "Plant response rating, Waterhemp", "setting": "waterhemp; 125 g ai/ha", "value": 0}, {"measurement": "Plant response rating, Waterhemp", "setting": "waterhemp; 250 g ai/ha", "value": 0}, {"measurement": "Cupgrass, Woolly plant response rating", "setting": "cupgrass, woolly; [4]", "value": 10}, {"measurement": "Plant response rating, Cupgrass, Woolly", "setting": "cupgrass, woolly; 62 g ai/ha, scale 0 to 100", "value": 75}, {"measurement": "Plant response rating, Cupgrass, Woolly", "setting": "cupgrass, woolly; [2]", "value": 80}, {"measurement": "Plant response rating, Cupgrass, Woolly", "setting": "cupgrass, woolly; [3]", "value": 85}, {"measurement": "Bromegrass, Downy plant response rating", "setting": "bromegrass, downy; [4]", "value": 0}, {"measurement": "Plant response rating, Bromegrass, Downy", "setting": "bromegrass, downy; 62 g ai/ha, scale 0 to 100", "value": 0}, {"measurement": "Plant response rating, Bromegrass, Downy", "setting": "bromegrass, downy; [2]", "value": 0}, {"measurement": "Plant response rating, Bromegrass, Downy", "setting": "bromegrass, downy; [3]", "value": 5}, {"measurement": "Sunflower plant response rating", "setting": "sunflower; [5]", "value": 0}, {"measurement": "Plant response rating Sunflower", "setting": "sunflower; 62 g ai/ha, scale 0 to 100", "value": 0}, {"measurement": "Plant response rating Sunflower", "setting": "sunflower; [2]", "value": 0}, {"measurement": "Surinam Grass plant response rating", "setting": "surinam grass; [5]", "value": 0}, {"measurement": "Plant response rating, Surinam Grass", "setting": "surinam grass; 62 g ai/ha, scale 0 to 100", "value": 0}, {"measurement": "Plant response rating, Surinam Grass", "setting": "surinam grass; [2]", "value": 75}, {"measurement": "Bermudagrass plant response rating", "setting": "bermudagrass; [4]", "value": 0}, {"measurement": "Plant response rating, Bermudagrass", "setting": "bermudagrass; 62 g ai/ha, scale 0 to 100", "value": 0}, {"measurement": "Plant response rating, Bermudagrass", "setting": "bermudagrass; [2]", "value": 0}, {"measurement": "Plant response rating, Bermudagrass", "setting": "bermudagrass; [3]", "value": 0}, {"measurement": "Nightshade plant response rating", "setting": "nightshade; [5]", "value": 0}, {"measurement": "Plant response rating, Nightshade", "setting": "nightshade; 62 g ai/ha, scale 0 to 100", "value": 0}, {"measurement": "Plant response rating, Nightshade", "setting": "nightshade; [2]", "value": 0}]}
{"smiles": "O=C1NCC(c2ccc(C(F)(F)F)cc2)C1C(=O)Nc1ccc(F)c(F)c1F", "note": "(stereo not shown) [Compound 232]", "values": [{"measurement": "Plant response rating, Waterhemp", "setting": "waterhemp; 31 g ai/ha", "value": 35}, {"measurement": "Plant response rating, Waterhemp", "setting": "waterhemp; 62 g ai/ha", "value": 80}, {"measurement": "Plant response rating, Waterhemp", "setting": "waterhemp; 125 g ai/ha", "value": 85}, {"measurement": "Plant response rating, Waterhemp", "setting": "waterhemp; 250 g ai/ha", "value": 95}, {"measurement": "Plant response rating, Galium", "setting": "galium; 125 g ai/ha, 0 to 100 scale, 0 is no effect, 100 is complete control", "value": 60}, {"measurement": "Galium plant response rating (0 to 100 scale, 0 is no effect, 100 is complete control)", "setting": "galium; 500 g ai/ha", "value": 60}]}
